Experimental findings from US20060241098A1, “Pesticidal n-substituted azacyclic derivatives” (priority 2003, published 2006) are described below.

This data set relates to cotton aphid (Aphis gossypii). Put plainly: Translaminar insecticidal activity test on cotton leaves, N-oxides versus free amines. The conditions noted are these: for mortality at 500 ppm: Aphis gossypii. It is filed as in vivo. As to the method:
Certain N-Substituted azacyclic compounds where the N-substituent is O^− (the N-oxides) of the present invention were tested to determine their translaminar characteristics as evidenced by activity against cotton aphid (Aphis gossypii) in comparison with their corresponding free amine derivatives. These tests were conducted in the following manner: For each compound tested, one cotton plant with two mature leaves was selected. On the top of one of the leaves a sticky material used for trapping insects was applied using a stamp of about 2.5 centimeters in diameter. The process was repeated on the bottom of the second leaf of the cotton plant. A solution of 500 ppm of test compound (dissolved in 1:1 acetone and water containing a small amount of surfactant) was then applied to the entire side of each leaf opposite the side stamped with the sticky material using a saturated cotton swab. Upon completion of the application of the test compounds, the cotton plants were maintained in a growth chamber for about 18 hours. After this time the leaves of the test plant were infested with a known number of cotton aphids by placing an infested leaf cutting from the cotton aphid colony directly over the sticky material on each leaf. The leaf cutting on the bottom of a leaf of the test plant was secured to the leaf with a pin. The treated and infested cotton plants were then maintained in a chamber, during which time they were evaluated at daily intervals of from one to up to eight days. A test compound was termed active (A) if the top and bottom of the leaves of the test plant were mostly free of aphids (80% to 100%) when compared to untreated controls. […]

[1] abbreviates: 144 h, read-out: Percent Mortality at Day After treatment (DAT), 6 DAT.
Setting [2] is: 24 h, read-out: Percent Mortality at Day After treatment (DAT), 1 DAT.
The mark [3] stands for this setting: 72 h, read-out: Percent Mortality at Day After treatment (DAT), 3 DAT.
Setting [4] is: 96 h, read-out: Percent Mortality at Day After treatment (DAT), 4 DAT.
Where [5] appears, read: 120 h, read-out: Percent Mortality at Day After treatment (DAT), 5 DAT.

The structures appear in SMILES notation. Read-outs that look alike come from different tables or passages of the source.

One may read the mortality as the percentage killed. Take `CN1CCC=C(c2cnsn2)C1` [A, 3-[1-methyl(1,2,5,6-tetrahydropyrid-3-yl)]-1,2,5-thiadiazole]: the mortality at 500 ppm is < 50% (24 h, 500 ppm applied to opposite leaf side, 1 DAT, read-out: Percent Mortality at Day After treatment (DAT), 1 DAT); < 50% (48 h, 500 ppm applied to opposite leaf side, 2 DAT, read-out: Percent Mortality at Day After treatment (DAT), 2 DAT); < 50% (72 h, 500 ppm applied to opposite leaf side, 3 DAT, read-out: Percent Mortality at Day After treatment (DAT), 3 DAT); < 50% (96 h, 500 ppm applied to opposite leaf side, 4 DAT, read-out: Percent Mortality at Day After treatment (DAT), 4 DAT); < 50% (144 h, 500 ppm applied to opposite leaf side, 6 DAT, read-out: Percent Mortality at Day After treatment (DAT), 6 DAT).

In the case of `Cc1nnn([C@H]2CN3CC[C@H]2C3)n1` [D, 2-(4-azabicyclo[2.2.1]heptyl-2-yl)-5-methyl-1,2,3,4-tetrazole], the mortality at 500 ppm reads like this: under setting [1], 50 to 80%; (168 h, read-out: Percent Mortality at Day After treatment (DAT), 7 DAT) 50 to 80%.

In the case of `CCc1noc(C2CN3CCC2C3)n1` (stereo not drawn) [C, 5-(4-azabicyclo[2.2.1]hept-2-yl)-3-ethyl-1,2,4-oxadiazole], the mortality at 500 ppm by setting is: under setting [2], < 50%; under setting [3], < 50%; under setting [4], < 50%; under setting [5], < 50%; under setting [1], < 50%.

With `Cc1nnn(C2C[N+]3([O-])CCC2CC3)n1` (stereo not drawn) [Compound 407, N-Oxide of 5-methyl-2-quinuclidin-3-yl-1,2,3,4-tetraazole], the mortality at 500 ppm runs as follows: under setting [2], < 50%; under setting [3], 50 to 80%; under setting [4], 50 to 80%; under setting [5], 50 to 80%; under setting [1], 50 to 80%.

For `CCc1noc(C2C[N+]3([O-])CCC2C3)n1` (stereo not drawn) [Compound 397, N-Oxide of 5-(4-azabicyclo[2.2.1]hept-2-yl)-3-ethyl-1,2,4-oxadiazole], the “Percent Mortality at Day After treatment (DAT), 1 DAT” value (500 ppm applied to opposite leaf side, 1 DAT) is reported as “SA (SA is 50%-80% mortality when compared to the control)”. Further, where the note is “500 ppm applied to opposite leaf side, 3 DAT”, the “Percent Mortality at Day After treatment (DAT), 3 DAT” value is listed as “SA (SA is 50%-80% mortality when compared to the control)”. For the setting “500 ppm applied to opposite leaf side, 4 DAT”, the “Percent Mortality at Day After treatment (DAT), 4 DAT” value is “SA (SA is 50%-80% mortality when compared to the control)”. The “Percent Mortality at Day After treatment (DAT), 5 DAT” value (500 ppm applied to opposite leaf side, 5 DAT) was “SA (SA is 50%-80% mortality when compared to the control)”. In addition, the “Percent Mortality at Day After treatment (DAT), 6 DAT” value (500 ppm applied to opposite leaf side, 6 DAT) is given as “SA (SA is 50%-80% mortality when compared to the control)”.

With `Cc1nnn(C2CN3CCC2CC3)n1` (stereo not drawn) [E, 5-methyl-2-quinuclidin-3-yl-1,2,3,4-tetraazole], the mortality at 500 ppm runs as follows: under setting [2], < 50%; under setting [3], < 50%; under setting [4], < 50%; under setting [5], < 50%; under setting [1], < 50%.
